Laboratory results as given in patent US9624167B2, “N-(4-hydroxy-4-methyl-cyclohexyl)-4-phenyl-benzenesulfonamides and N-(4-hydroxy-4-methyl-cyclohexyl)-4-(2-pyridyl)benzenesulfonamides and their therapeutic use” (PIMCO 2664 LIMITED, priority 2013, dated 2017).
pIC50: −log10 of the molar value. Values after ≈ are worked out from the molar mass of the structure shown. Where two headings read alike, the source gives them in different places.

How the values were obtained:
[1] = biological target: T1, hERG (Homo sapiens, UniProt Q12809); experiment: hERG Ion Channel Assay (Q-patch, hERG-CHO cells); format: cell-based; settings: human, CHO cells stably transfected with hERG (hERG-CHO), pH 7.4, 30 μM, hERG tail current
T1 construct: expressed in transfected cells; host or cells: Chinese Hamster Ovary cells (hERG-CHO), stably transfected
T1 sequence (Q12809 whole entry): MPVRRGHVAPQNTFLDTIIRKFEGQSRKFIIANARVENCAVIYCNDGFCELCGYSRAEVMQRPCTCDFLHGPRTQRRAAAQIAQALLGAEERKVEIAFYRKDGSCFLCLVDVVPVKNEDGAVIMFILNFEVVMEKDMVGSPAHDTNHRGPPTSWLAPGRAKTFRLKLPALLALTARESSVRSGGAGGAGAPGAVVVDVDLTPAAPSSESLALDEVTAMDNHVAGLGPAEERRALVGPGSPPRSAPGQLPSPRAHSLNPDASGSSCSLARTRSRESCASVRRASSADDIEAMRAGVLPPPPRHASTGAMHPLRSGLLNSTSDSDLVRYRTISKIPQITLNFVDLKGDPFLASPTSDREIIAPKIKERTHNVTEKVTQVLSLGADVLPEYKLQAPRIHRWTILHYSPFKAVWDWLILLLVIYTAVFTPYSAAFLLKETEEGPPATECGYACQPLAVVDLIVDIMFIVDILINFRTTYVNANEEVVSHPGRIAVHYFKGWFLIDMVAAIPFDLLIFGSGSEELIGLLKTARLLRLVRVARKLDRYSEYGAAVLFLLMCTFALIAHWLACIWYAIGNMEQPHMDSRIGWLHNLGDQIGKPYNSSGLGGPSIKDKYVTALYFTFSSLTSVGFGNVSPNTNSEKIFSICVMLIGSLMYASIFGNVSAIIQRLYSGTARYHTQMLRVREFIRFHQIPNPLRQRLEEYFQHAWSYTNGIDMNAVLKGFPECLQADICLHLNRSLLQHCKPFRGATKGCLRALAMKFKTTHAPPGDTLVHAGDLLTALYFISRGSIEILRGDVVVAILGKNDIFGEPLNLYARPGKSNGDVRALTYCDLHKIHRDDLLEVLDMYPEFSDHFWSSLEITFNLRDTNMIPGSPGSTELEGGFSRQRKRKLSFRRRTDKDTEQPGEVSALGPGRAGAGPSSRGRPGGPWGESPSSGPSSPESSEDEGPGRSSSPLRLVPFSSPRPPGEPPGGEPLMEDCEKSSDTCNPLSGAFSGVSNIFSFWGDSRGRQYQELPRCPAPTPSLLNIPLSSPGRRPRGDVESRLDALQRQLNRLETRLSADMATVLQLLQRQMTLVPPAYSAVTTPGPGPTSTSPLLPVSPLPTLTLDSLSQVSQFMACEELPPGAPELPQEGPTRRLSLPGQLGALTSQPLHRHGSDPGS
Experimental: (§1) The activity of the compounds against the hERG ion channel was tested. The assay was conducted using the automated path-clamp, Q-patch method using stably transfected Chinese Hamster Ovary cells (hERG-CHO). hERG-CHO cells were cultured in F-12 Kaighn's Nutrient Mixture medium (Invitrogen)+10% FBS at 37° C. for 1-3 days. Cells were kept at 30° C. for 24 to 48 hours prior to patch clamping in order to increase the hERG current amplitude. Subsequently, the cells were harvested by trypsinisation, and kept in Serum Free Medium (SFM) in the Q-patch cell preparation state for up to 6 hours at room temperature before being washed and re-suspended in extracellular solution and applied to the patch clamp sites for data recording.
(§2) Patch-clamp voltage protocol: After whole cell configuration was achieved, the cell was held at −80 mV. A 50 millisecond pulse to −40 mV was delivered to measure the leaking current, which was subtracted from the tail current on-line. Then the cell was depolarized to +20 mV for 2 seconds, followed by a one second pulse to −40 mV to reveal hERG tail current. This paradigm was delivered once every 5 seconds to monitor the current amplitude.
(§3) Extracellular solution: 137 mM NaCl, 4 mM KCl, 1.8 mM CaCl2, 1 mM MgCl2, 10 mM D(+)-glucose, 10 mM HePES buffer (pH adjusted to 7.4 with NaOH).
(§4) After the whole cell configuration was achieved, the extracellular solution (control) was applied first and the cell was stabilized for 2 minutes in extracellular solution. The test compound was then applied from low concentrations to high concentrations cumulatively. The cell was incubated with each test concentration for 5 minutes. During each incubation, the cell was repetitively stimulated using the voltage protocol described above, and the tail current amplitude was continuously monitored.
(§5) • (1) Peak tail current >100 pA in control. • (2) Initial run-down <30% and the run-down stops before first application of the test compound. • (3) Leak currents <50% of the control peak tail currents at any time. • (4) rs<20 MΩ throughout the experiment.
(§6) The degree of inhibition (%) was obtained by measuring the tail current amplitude, induced by a one second test pulse to −40 mV after a two second pulse to +20 mV, before and after incubation with the test compound. The difference in current was normalized to control and multiplied by 100 in order to obtain the percent inhibition.
(§7) Concentration (log) response curves were fitted to a logistic equation (three parameters assuming complete block of the current at very high test compound concentrations) to generate estimates of the 50% inhibitory concentration (IC50). The concentration-response relationship of each compound was constructed from the percentage reductions of current amplitude by sequential concentrations.

[2] = biological target: T2, hERG ion channel (Homo sapiens, UniProt Q12809); experiment: hERG Ion Channel Assay (Q-patch, hERG-CHO cells); format: cell-based; settings: hERG tail current, hERG-CHO cells, Q-patch; read-out: IC50 (1)
T2 construct: expressed in transfected cells; host or cells: Chinese Hamster Ovary cells (hERG-CHO), stably transfected
T2 sequence (Q12809 whole entry): as above
Experimental: as §1, §2, §3, §4, §5, §6, §7

[3] = Aqueous (FaSSIF) solubility; format: physicochemical; settings: fasted state simulated intestinal fluid (FaSSIF); for solubility: pH 6.8, two replicates, read-out: Solubility (2)
Experimental: Solubility was measured by equilibration of the compound in fasted state simulated intestinal fluid (FaSSIF) and quantified by high-performance liquid chromatography (HPLC).
Aqueous solubility was measured by equilibration of compounds with fasted state simulated intestinal fluid (FaSSIF) and quantified spectrophotometrically.
FaSSIF was prepared as described below:
Preparation of blank FaSSIF: 0.21 g of sodium hydroxide (NaOH) pellets, 1.97 g of dihydrogen sodium phosphate (NaH2PO4.2H2O) and 3.09 g of sodium chloride (NaCl) were dissolved in 400 mL of deionised water. […]
Preparation of FaSSIF: 0.056 g of SIF Powder (containing sodium taurocholate and lecithin) (Phares AG) was dissolved in 25 mL of blank FaSSIF and stirred until the powder was completely dissolved. The solution was allowed to stand for 2 hours during which it became opalescent; it was used within 24 hours. The final solution composition was characterised as follows: • Sodium taurocholate: 3 mM • Lecithin: 0.75 mM • Osmolarity: 270±10 mOsmol • pH: 6.5
The optical density was measured at the end of the incubation period for test compounds and a reference used to determine solubility. In brief, two samples were prepared for each determination: a reference sample consisting of a stock solution of test compound in DMSO diluted in system solution (a phosphate free, low absorption buffer) and propanol; and a test sample (prepared in triplicate) consisting of 0.5 mL FaSSIF spiked with test compound at 0.2 mM. Each sample was incubated at room temperature for 16 hours with constant shaking at 250 rpm. At the end of the incubation period, 0.3 mL of each sample was filtered through a pION filter plate (PION, Woburn Mass.), diluted 1:1 with propanol and scanned using UV spectrophotometry at λmax ([…]) using a Spectra Max Plus—Version 2.1000 (Molecular Devices, Sunnyvale, Calif.), with μSOL Explorer solubility determination software (pION, Woburn, Mass.).
FaSSIF solubility was calculated using the following formula:
[formula] wherein: • “OD” is the optical density; • “Cr” is the concentration of the reference (33.4 μM); and • “molecular weight” is for the test compound (e.g., 381.44 for ABD735).

[4] = test system: J774 macrophages; experiment: Resazurin Macrophage J774 Viability Assay; format: cell-based; settings: Mus musculus, 6 point concentration range 10 μM to 10 nM, n = 3 replicates, mean of 2 independent experiments, 72 hour incubation, read-out: IC50 (1)
Experimental: Potency was assessed using a viability assay based on the survival of the J774 macrophage cell line. Macrophages are closely related to osteoclasts and have been used previously as a model system for osteoclast survival (see, e.g., Luckman et al., 1998, “Heterocycle-containing bisphosphonates cause apoptosis and inhibit bone resorption by preventing protein prenylation: evidence from structure-activity relationships in J774 macrophages,” J. Bone Miner. Res., Vol. 13, pp. 1668-1678). The model is indicative both of effects on bone protection in diseases such as osteoporosis, osteoarthritis and rheumatoid arthritis, and of effects on inflammation since, like osteoclasts, J774 macrophages are dependent for survival on continued NFκB activation.
In vitro potency of test compounds was determined by incubation with J774 macrophages and subsequent determination of cell viability using resazurin.
Resazurin is a redox dye commonly used as an indicator of viability in cultured cells (see, e.g., Anoopkumar-Dukie, 2005, British Journal of Radiology, Vol. 78, pp. 945-947). It is non-toxic to cells and stable in culture medium, allowing continuous measurement of cell proliferation in vitro as either a kinetic or endpoint assay. The assay is based on the ability of viable, metabolically-active cells to reduce resazurin (which is blue and non-fluorescent) to resorufin and dihydroresorufin (which are red and fluorescent) using electrons from reducing species, such as nicotinamide adenine dinucleotide (NADPH) and flavin adenine dinucleotide (FADH). This transformation, from oxidised form to reduced form, can be measured either colorimetrically or fluorometrically. Insults that impair cell viability and proliferation also affects the capacity of cells to reduce resazurin, and the rate of dye reduction is directly proportional to the number of viable cells present.
For fluorescence measurements, 530-560 nm excitation and 590 nm emission wavelengths are typically used. For colorimetric measurements, absorbance at 570 nm (reduced form) and 600 nm (oxidised form) is typically measured. A simple calculation is performed to determine the relative quantities of the two species: a high ratio of resorufin (the reduced form) to resazurin (the oxidised form) is an indicator that cells are proliferating and viable. A low ratio indicates cells that are quiescent or non-viable.
J774 cells were plated at 10^4 cells per well in 100 μL αMEM (α Modified Eagle Medium) in 96-well plates and allowed to adhere overnight. The following day, test compounds were prepared as 100 mM solutions in DMSO. These stock solutions were diluted in DMSO and then diluted 1000× in culture medium (αMEM) before being added directly to the wells so as to give the desired final compound concentration. After a 72 hour incubation at 37° C./5% CO2, resazurin (Alamar Blue, Biosource International) was added to each well (1:10 v/v, 10 μL). The plate was then incubated at 37° C. for 3 hours and fluorescence was measured at 590 nm, with a 25 nm bandwidth.
The average results for each test compound were expressed as a percent (%) of the average control value reflecting cell viability. The average values across the concentrations tested were then plotted and the IC50 for was calculated by fitting the data to a 4-parameter IC50 equation using software from Grafit (Erithacus Software). Each experiment was repeated twice and the data are presented as the mean IC50 from both experiments.

[5] = Human Liver Microsomal Stability; format: in vitro ADME; settings: both sexes, pooled liver microsomes, pH 7.4, human liver microsomes 0.5 mg/mL protein, 1 μM compound, 6 time points 0-60 min, two replicates, read-out: T1/2 (2)
Experimental: Metabolic stability was measured by determining the rate of disappearance of compound in the presence of human liver microsomal preparations, as quantified by liquid chromatography mass-spectrometry and […] mass-spectrometry (LC-MS/MS).
Metabolic stability of test compounds was measured by determination of the rate of disappearance of the compound when incubated in the presence of human liver microsomes. Liver microsomes are prepared from the endoplasmic reticulum of hepatocytes and are the primary source of the most important enzymes (cytochrome P450s) involved in drug metabolism. Study of drug stability in the presence of liver microsomes is accepted as a valuable model permitting rapid prediction of in vivo drug stability.
Human liver microsomes were obtained from a commercial source. Test compounds (1 μM) were incubated with pooled liver microsomes (male and female). Samples were incubated for a 60 minute period and removed at up to 6 time points and analysed by LC-MS/MS for the presence/amount of test compounds.
Microsomes (final protein concentration 0.25 or 0.5 mg/mL), 0.1 M phosphate buffer pH 7.4, and test compound (final concentration 1 μM; diluted from 10 mM stock solution to give a final DMSO concentration of 0.1%) were incubated at 37° C. prior to the addition of Nicotinamide adenine dinucleotide phosphate (NADPH, final concentration 1 mM) to initiate the reaction. The final incubation volume was 100 μL. A control incubation was included for each compound tested, where 0.1 M phosphate buffer pH 7.4 was added instead of NADPH. […]
Each compound was incubated for 0, 5, 15, 30, 45 or 60 minutes. The reactions were stopped by the addition of 100 μL ice-cold acetonitrile containing internal standard (0.001 mM glipizide) at the appropriate time points. The incubation plates were centrifuged at 4000 rpm for 15 minutes at 4° C. to precipitate the protein and 0.1 mL aliquots were analysed using LC-MS/MS, with the conditions shown in the following table.
From a plot of the natural logarithm of the peak area ratio (i.e., the ratio of compound peak area:internal standard peak area) against time, the gradient of the line was determined.

[6] = test system: IL-6 release from LPS-stimulated Thp1 macrophages; experiment: Thp1 Macrophage IL-6 Release Assay; format: cell-based; settings: Homo sapiens, THP-1, 1.7 × 10^5 cells/well, 96-well plates, 3 days, 9 point curve, IL6 measured 18 hours after LPS, read-out: IC50 (2)
Source text: Anti-inflammatory effects were further characterised by assessing the production of interleukin-6 (IL-6) by human Thp-1 derived macrophages stimulated with a pro-inflammatory stimulus bacterial lipopolysaccharide (LPS). LPS acts with a cell-surface receptor, Toll-like receptor-4 to activate the NFκB and IRF signalling pathways to produce IL-6. The reduction of IL—in this stimulated assay is indicative of anti-inflammatory effects with utility in the treatment of conditions in which IL-6 production is aberrant.
In vitro potency of test compounds in human cells was determined by incubation with Thp1 macrophages and subsequent stimulation with an inflammatory stimulus (bacterial lipopolysaccharide (LPS)) followed by measurement of cellular interleukin-6 (IL-6) release.
Thp1 cells were plated at a concentration of 1×10^5 cells/well or 1.7×10^5 cells/well in 500 μL or 150 μL RPMI complete media containing 1% penicillin-streptomycin and 10% heat inactivated foetal bovine serum in 24-well plates or 96-well plates, respectively and allowed to adhere overnight. The following day, the cells were stimulated with phorbol myristic acid (PMA) at a final concentration of 100 nM (24-well plates) or 200 nM (96-well plates) to induce differentiation and maintained for up to 8 days with a medium change at 5 days if cells were cultured to 8 days. Test compounds were prepared as […] solutions in DMSO and then serially diluted in DMSO prior to dilution in culture medium.
The diluted compounds were added to the cultures 1 hour prior to stimulation with 100 ng/mL LPS. Following a 16 or 18 hour incubation at 37° C./5% CO2, the cell culture medium was collected and assayed for human IL-6 levels using the human IL-6 duo-set ELISA kit (R&D Systems). The average results for each test compound (n=3) were expressed as a percent (%) of the average control value. The average values across the concentrations tested were then plotted and the IC50 for the inhibition of IL-6 was calculated by fitting the data to a 4-parameter IC50 equation using software from Grafit version 6.0.12 (Erithacus Software Ltd., by Dr Robin Leatherbarrow) or GraphPad Prism version 5.04 for Windows (GraphPad Software, La Jolla, Calif., USA, www.qraphpad.com). Each experiment was repeated twice and the data are presented as the mean IC50 from both experiments.

[7] = test system: J774 macrophages; experiment: Resazurin Macrophage J774 Viability Assay; format: cell-based; settings: Mus musculus, 12 point concentration range 10 μM to 0.5 nM, n = 4 replicates, mean of 3 independent experiments, 72 hour incubation, read-out: IC50 (2)

O=S(=O)(N[C@H]1CC[C@H](O)CC1)c1ccc(-c2ccc(F)cc2F)cc1 [ABD599, reference compound]
inhibition at 5 min, 30 µM [1]: 85%
pIC50 [2]: 5.31
solubility at 16 h ([3]; kinetic from dmso stock, pH 6.5, three replicates, 16 hours, read-out: Solubility (1)): 30 µg/mL (≈ 81.7 µM)
pIC50 [4]: 6.72

C[C@]1(O)CC[C@H](NS(=O)(=O)c2ccc(-c3ccc(F)cc3C#N)cc2)CC1 [HMC-C-05-A, 2′-Cyano-4′-fluoro-N-((1r,4r)-4-hydroxy-4-methylcyclohexyl)-[1,1′-biphenyl]-4-sulfonamide]
half-life at 1 μM [5]: 2.05 h
pIC50 [6]: 5.99
pIC50 [7]: 5.61
solubility [3]: 190 µg/mL (≈ 489 µM)

C[C@]1(O)CC[C@H](NS(=O)(=O)c2ccc(-c3ccc(C#N)cc3F)cc2)CC1 [HMC-C-06-A, 4′-Cyano-2′-fluoro-N-((1r,4r)-4-hydroxy-4-methylcyclohexyl)-[1,1′-biphenyl]-4-sulfonamide]
half-life at 1 μM [5]: 4 h
pIC50 [6]: 6.72
pIC50 [7]: 6.15
solubility [3]: 110 µg/mL (≈ 283 µM)

C[C@]1(O)CC[C@@H](NS(=O)(=O)c2ccc(-c3ncc(Cl)cc3Cl)c(F)c2)CC1 [HMC-N-04-B]
inhibition at 5 min, 30 µM [1]: 60%
